Measurements from paper PMC6061700 (Toxicological Sciences, 2018).
Where two headings read alike, the source gives them in different places. Marks after values point to notes of the source that are not given here.

Assays:
[1] = system: Axiogenesis [AXG] human stem cell-derived cardiomyocytes; conditions: for EAD occurrence (proportion of replicates exhibiting EADs): AXG; for FPDc20 concentration (20% increase in FPDc): human
[2] = system: Cellular Dynamics International [CDI] human stem cell-derived cardiomyocytes
[3] = system: Stanford Cardiovascular Institute [SCI] human stem cell-derived cardiomyocytes; conditions: for EAD occurrence (proportion of replicates exhibiting EADs): study 10, SCI, AXN
[4] = system: human induced pluripotent stem cell-derived cardiomyocytes (hiPSC-CMs)
[5] = free clinical Cmax; ref Kramer et al. (2013); cited from earlier work
[6] = 20% increase in FPDc, median across qualified studies

O=C(NCC1CCCCN1)c1cc(OCC(F)(F)F)ccc1OCC(F)(F)F (stereo not shown) [Flecainide]
EAD occurrence (proportion of replicates exhibiting EADs) ([1]; study 4, MCS, 3 µM): 1/3 | EAD occurrence (proportion of replicates exhibiting EADs) ([2]; study 5, CDI, AXN, 1 µM): 2/4 | EAD occurrence (proportion of replicates exhibiting EADs) ([2]; study 5, CDI, AXN, 3 µM): 1/4 | EAD occurrence (proportion of replicates exhibiting EADs) ([2]; study 6, CDI, AXN, 1 µM): 1/3 | EAD occurrence (proportion of replicates exhibiting EADs) ([2]; study 6, CDI, AXN, 3 µM): 1/3 | EAD occurrence (proportion of replicates exhibiting EADs) ([2]; study 7, CDI, MCS, 3 µM): 3/3 | EAD occurrence (proportion of replicates exhibiting EADs) ([2]; study 8, CDI, MCS, 3 µM): 4/4 | EAD occurrence (proportion of replicates exhibiting EADs) ([2]; study 9, CDI, ACA, 3 µM): 3/3 | FPDc20 concentration (20% increase in FPDc) ([3]; human): 1 µM | EAD occurrence (proportion of replicates exhibiting EADs) ([3]; 1 µM): 1/3 | EAD occurrence (proportion of replicates exhibiting EADs) ([3]; 3 µM): 2/3 | FPDc20: median [4, 6]: 1 µM

CC(C)(Oc1ccc(Cl)cc1)C(=O)NC1C2CC3CC1CC(NS(C)(=O)=O)(C3)C2 (stereo not shown) [JNJ303]
prolongation of FPD and FPDc ([2]; single example study, CDI myocytes, highest concentration tested (300 nM)): ~10% | EAD occurrence ([4]; across all studies, any concentration): No EADs

Cc1cccc(C)c1OCC(C)N (stereo not shown) [Mexiletine]
FPDc20 concentration (20% increase in FPDc) [1]: 30 µM | EAD occurrence (proportion of replicates exhibiting EADs) ([2]; human): 3/3 | FPDc20: median ([4]; human): 30 µM | FPDc20: span ([4]; human): 0.5 log unit | studies in which FPDc20 was detected ([4]; human): 3 of 8

COc1c(N2C[C@@H]3CCCN[C@@H]3C2)c(F)cc2c(=O)c(C(=O)O)cn(C3CC3)c12 [Moxifloxacin]
FPDc20 concentration (20% increase in FPDc) [1]: 100 µM | EAD occurrence (proportion of replicates exhibiting EADs) ([2]; study 6, CDI, AXN, 100 µM): 3/3 | EAD occurrence (proportion of replicates exhibiting EADs) ([2]; study 9, CDI, ACA, 30 µM): 1/3 | EAD occurrence (proportion of replicates exhibiting EADs) ([2]; study 9, CDI, ACA, 100 µM): 2/3 | FPDc20 concentration (20% increase in FPDc) ([3]; human): 30 µM | EAD occurrence (proportion of replicates exhibiting EADs) ([3]; 30 µM): 1/3 | EAD occurrence (proportion of replicates exhibiting EADs) ([3]; 100 µM): 2/3 | FPDc20: median [4, 6]: 100 µM | Free Drug (free Cmax) [5]: 10.96* µM

COC(=O)C1=C(C)NC(C)=C(C(=O)OC)C1c1ccccc1[N+](=O)[O-] [Nifedipine]
FPDc20 concentration (20% decrease in FPDc) ([3]; human): 0.3 µM | EAD occurrence [4]: No EADs | FPDc20: median ([4]; human): 0.1 µM | FPDc20: span ([4]; human): 0.5 log unit

C=C[C@H]1C[N@@]2CC[C@H]1C[C@@H]2[C@@H](O)c1ccnc2ccc(OC)cc12 [Quinidine]
EAD occurrence (proportion of replicates exhibiting EADs) ([1]; study 1, AXN, 10 µM): 3/3 | EAD occurrence (proportion of replicates exhibiting EADs) ([1]; study 2, AXN, 10 µM): 2/3 | EAD occurrence (proportion of replicates exhibiting EADs) ([1]; study 4, MCS, 10 µM): 3/3 | EAD occurrence (proportion of replicates exhibiting EADs) ([2]; study 5, CDI, AXN, 10 µM): 2/3 | EAD occurrence (proportion of replicates exhibiting EADs) ([2]; study 6, CDI, AXN, 1 µM): 3/3 | EAD occurrence (proportion of replicates exhibiting EADs) ([2]; study 6, CDI, AXN, 3 µM): 3/3 | EAD occurrence (proportion of replicates exhibiting EADs) ([2]; study 7, CDI, MCS, 3 µM): 1/3 | EAD occurrence (proportion of replicates exhibiting EADs) ([2]; study 7, CDI, MCS, 10 µM): 3/3 | EAD occurrence (proportion of replicates exhibiting EADs) ([2]; study 8, CDI, MCS, 10 µM): 4/4 | EAD occurrence (proportion of replicates exhibiting EADs) ([2]; study 9, CDI, ACA, 1 µM): 1/3 | EAD occurrence (proportion of replicates exhibiting EADs) ([2]; study 9, CDI, ACA, 3 µM): 3/3 | EAD occurrence (proportion of replicates exhibiting EADs) ([2]; study 9, CDI, ACA, 10 µM): 2/3 | FPDc20 concentration (20% increase in FPDc) ([3]; human): 1 µM | EAD occurrence (proportion of replicates exhibiting EADs) ([3]; 1 µM): 2/3 | EAD occurrence (proportion of replicates exhibiting EADs) ([3]; 3 µM): 3/3 | FPDc20: median [4, 6]: 1 µM | FPDc20: span ([4]; 20% increase in FPDc, span across qualified studies): 1 log unit | Free Drug (free Cmax) [5]: 3.237* µM

COc1ccccc1OCC(O)CN1CCN(CC(=O)Nc2c(C)cccc2C)CC1 (stereo not shown) [Ranolazine]
EAD occurrence (proportion of replicates exhibiting EADs) ([1]; study 4, MCS, 30 µM): 3/4 | EAD occurrence (proportion of replicates exhibiting EADs) ([2]; study 6, CDI, AXN, 10 µM): 3/3 | EAD occurrence (proportion of replicates exhibiting EADs) ([2]; study 6, CDI, AXN, 30 µM): 3/3 | EAD occurrence (proportion of replicates exhibiting EADs) ([2]; study 7, CDI, MCS, 30 µM): 3/3 | EAD occurrence (proportion of replicates exhibiting EADs) ([2]; study 8, CDI, MCS, 30 µM): 5/5 | EAD occurrence (proportion of replicates exhibiting EADs) ([2]; study 9, CDI, ACA, 10 µM): 3/3 | EAD occurrence (proportion of replicates exhibiting EADs) ([2]; study 9, CDI, ACA, 30 µM): 2/3 | FPDc20 concentration (20% increase in FPDc) ([3]; human): 10 µM | EAD occurrence (proportion of replicates exhibiting EADs) ([3]; 10 µM): 1/3 | EAD occurrence (proportion of replicates exhibiting EADs) ([3]; 30 µM): 2/3 | FPDc20: median [4, 6]: 10 µM
